Test results taken from ChEMBL document CHEMBL3102762, “A "natural" approach: synthesis and cytoxicity of monodesmosidic glycyrrhetinic acid glycosides” (Eur J Med Chem, 2014).
Active and inactive are the calls of the source. No cut-off for these calls is given here.

Key:
[1] = Cytotoxicity against human 518A2 cells by SRB assay; type: functional, cell-based
[2] = system: NIH3T3; test: Cytotoxicity against mouse NIH/3T3 cells by SRB assay; type: cell-based
[3] = system: A549; test: Induction of apoptosis in human A549 cells by acridine orange/ethidium bromide staining; type: functional, cell-based
[4] = system: 8505C; test: Cytotoxicity against human 8505C cells by SRB assay; type: functional, cell-based
[5] = system: MCF7; test: Induction of apoptosis in human MCF7 cells at 40 uM by acridine orange/ethidium bromide staining; type: functional, cell-based
[6] = Cytotoxicity against human A253 cells by SRB assay; type: functional, cell-based
[7] = Cytotoxicity against human Lipo cells by SRB assay; type: functional, cell-based
[8] = Cytotoxicity against human DLD1 cells by SRB assay; type: functional, cell-based; conditions: DLD-1
[9] = Cytotoxicity against human SW1736 cells by SRB assay; type: functional, cell-based; conditions: SW-1736
[10] = system: MCF7; test: Cytotoxicity against human MCF7 cells by SRB assay; type: functional, cell-based
[11] = system: MCF7; test: Induction of apoptosis in human MCF7 cells at 30 uM by acridine orange/ethidium bromide staining; type: functional, cell-based
[12] = system: MCF7; test: Induction of apoptosis in human MCF7 cells at 20 uM by acridine orange/ethidium bromide staining; type: functional, cell-based
[13] = system: MCF7; test: Induction of apoptosis in human MCF7 cells at 12 uM by acridine orange/ethidium bromide staining; type: functional, cell-based

SMILES | IC50 [1] | IC50 [2] | Activity [3] | IC50 [4] | Activity [5] | IC50 [6] | IC50 [7] | IC50 [8] | IC50 [9] | IC50 [10] | Activity [11] | Activity [12] | Activity [13]
COC(=O)[C@@]1(C)CC[C@]2(C)CC[C@]3(C)C(=CC(=O)[C@@H]4[C@@]5(C)CC[C@H](O[C@H]6OC[C@@H](O)[C@@H](O)[C@@H]6O)C(C)(C)[C@@H]5CC[C@]43C)[C@@H]2C1 | > 30 µM | > 30 µM | Active | > 30 µM | Active | > 30 µM | > 30 µM | > 30 µM | > 30 µM | > 30 µM | – | – | –
COC(=O)[C@@]1(C)CC[C@]2(C)CC[C@]3(C)C(=CC(=O)[C@@H]4[C@@]5(C)CC[C@H](O[C@@H]6O[C@@H](C)[C@H](O)[C@@H](O)[C@H]6O)C(C)(C)[C@@H]5CC[C@]43C)[C@@H]2C1 | > 30 µM | > 30 µM | Active | > 30 µM | – | > 30 µM | > 30 µM | > 30 µM | > 30 µM | 19.6 µM | Active | – | –
COC(=O)[C@@]1(C)CC[C@]2(C)CC[C@]3(C)C(=CC(=O)[C@@H]4[C@@]5(C)CC[C@H](O[C@@H]6O[C@H](CO)[C@H](O)[C@H](O)[C@H]6O)C(C)(C)[C@@H]5CC[C@]43C)[C@@H]2C1 | 23.3 µM | 23.4 µM | Active | 22.8 µM | – | 19.7 µM | 23.2 µM | 23.2 µM | 21.4 µM | 20.1 µM | Active | – | –
COC(=O)[C@@]1(C)CC[C@]2(C)CC[C@]3(C)C(=CC(=O)[C@@H]4[C@@]5(C)CC[C@H](O[C@@H]6OC[C@H](O)[C@H](O)[C@H]6O)C(C)(C)[C@@H]5CC[C@]43C)[C@@H]2C1 | > 30 µM | > 30 µM | Active | > 30 µM | – | > 30 µM | > 30 µM | > 30 µM | > 30 µM | 16.7 µM | – | Active | –
COC(=O)[C@@]1(C)CC[C@]2(C)CC[C@]3(C)C(=CC(=O)[C@@H]4[C@@]5(C)CC[C@H](O[C@@H]6OC[C@@H](O)[C@H](O)[C@H]6O)C(C)(C)[C@@H]5CC[C@]43C)[C@@H]2C1 | > 30 µM | > 30 µM | Active | > 30 µM | Active | > 30 µM | > 30 µM | > 30 µM | > 30 µM | > 30 µM | – | – | –
COC(=O)[C@@]1(C)CC[C@]2(C)CC[C@]3(C)C(=CC(=O)[C@@H]4[C@@]5(C)CC[C@H](O[C@H]6O[C@H](CO)[C@@H](O)[C@H](O)[C@@H]6O)C(C)(C)[C@@H]5CC[C@]43C)[C@@H]2C1 | 25.9 µM | > 30 µM | Active | 22 µM | – | 13.2 µM | > 30 µM | > 30 µM | 11.2 µM | 9.48 µM | – | – | Active
COC(=O)[C@@]1(C)CC[C@]2(C)CC[C@]3(C)C(=CC(=O)[C@@H]4[C@@]5(C)CC[C@H](O[C@H]6O[C@@H](C)[C@H](O)[C@@H](O)[C@H]6O)C(C)(C)[C@@H]5CC[C@]43C)[C@@H]2C1 | 28.9 µM | > 30 µM | Active | > 30 µM | Active | 27.2 µM | 28.4 µM | > 30 µM | 23.9 µM | > 30 µM | – | – | –
COC(=O)[C@@]1(C)CC[C@]2(C)CC[C@]3(C)C(=CC(=O)[C@@H]4[C@@]5(C)CC[C@H](O)C(C)(C)[C@@H]5CC[C@]43C)[C@@H]2C1 | – | – | Active | – | – | – | – | – | – | – | Active | – | –
